Source: article PMC8243516, “Inhibition of lysosomal phospholipase A2 predicts drug-induced phospholipidosis” (Journal of Lipid Research, 2021)

Columns and labels:
phospholipidosis [1] = details: phospholipidosis reported in vivo, species codes; Refs of Table 1; cited from earlier work
phospholipidosis [2] = details: phospholipidosis reported in vitro; Refs of Table 1; cited from earlier work
LPLA2 = target: T1, LPLA2 (Mus musculus, UniProt Q8VEB4); test: LPLA2 thermal stability measurement (SYPRO Orange Tm); type: binding; details: N=3 ± SD
T1 construct: purchased Proteos Inc. (Kalamazoo, MI)
T1 sequence (Q8VEB4 34-412): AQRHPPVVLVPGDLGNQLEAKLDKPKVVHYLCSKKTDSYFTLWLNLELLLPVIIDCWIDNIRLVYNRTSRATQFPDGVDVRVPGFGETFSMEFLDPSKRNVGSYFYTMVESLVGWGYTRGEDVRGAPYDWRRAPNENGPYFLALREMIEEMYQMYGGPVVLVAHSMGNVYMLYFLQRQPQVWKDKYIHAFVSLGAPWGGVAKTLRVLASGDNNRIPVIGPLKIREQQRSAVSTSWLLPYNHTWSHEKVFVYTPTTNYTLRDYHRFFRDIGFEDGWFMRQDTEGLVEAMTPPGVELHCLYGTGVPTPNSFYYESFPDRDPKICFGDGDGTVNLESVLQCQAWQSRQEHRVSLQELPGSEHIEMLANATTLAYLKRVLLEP

[3] = target: T2, recombinant mouse LPLA2 (PLA2G15) (Mus musculus, UniProt Q8VEB4); test: Transacylase activity of LPLA2 (1-O-acyl-N-acetylsphingosine synthase, cell-free liposome assay); type: biochemical; details: 1-O-acyl N-acetylsphingosine synthase activity, pH 4.5, DOPC/sulfatide liposomes; read-out: LPLA2 IC50
T2 construct: purchased Proteos Inc. (Kalamazoo, MI)
T2 sequence (Q8VEB4 34-412): T1 sequence (Q8VEB4 34-412)

[4] = ref Pubchem and chEMBL databases; cited from earlier work
MDCK cells = test: Screening phospholipidosis assay (LipidTOX Red / NucBlue Live fluorescence ratio); details: LipidTOX Red to NucBlue Live fluorescence ratio, 24 h, 15 μM

Structure (SMILES) | In Vivo PLD (phospholipidosis [1]) | In Vitro PLD (phospholipidosis [2]) | (ΔTm)c-(ΔTm)d, difference in melting temperature of LPLA2 alone or in the presence of drug (LPLA2) | IC50 [3] | pKa (basic) [4] | Ratio (15 μM) (MDCK cells)
CN(C)CCCN1c2ccccc2CCc2ccccc21 [Imipramine, (3-{2-azatricyclo[9.4.0.0^3,^8]pentadeca-1(15),3,5,7,11, 13-hexaen-2-yl}propyl)dimethylamine] | R | Yes | 0 °C | 27.6 µM | 9.2 | 
O=C(NC1CCN(CCc2c[nH]c3ccccc23)CC1)c1ccccc1 [Indoramin, N-{1-[2-(1H-indol-3-yl)ethyl]piperidin-4-yl} benzamide] | R | Yes | 1.08 ± 0.4 °C | 124 µM | 9.59 | 
OC1(c2ccc(Cl)c(C(F)(F)F)c2)CCN(CCCC(c2ccc(F)cc2)c2ccc(F)cc2)CC1 [Penfluridol, 1-[4,4-bis(4-fluorophenyl)butyl]-4-[4-chloro-3-(trifluoromethyl)phenyl]piperidin-4-ol] | Yes |  | 0.11 ± 0.0 °C | 9.09 µM | 8.96 | 0.55
C1CCC(C(CC2CCCCN2)C2CCCCC2)CC1 (centres unmarked) [Perhexiline, 2-(2,2-dicyclohexylethyl) piperidine] | H,R,M | Yes | -0.12 ± 0.0 °C | 11.7 µM | 10.58 | 
CN(C)CCCN1c2ccccc2Sc2ccccc21 [Promazine, dimethyl[3-(10H-phenothiazin-10-yl)propyl]amine] | R | Yes | -0.10 ± 0.0 °C | 39 µM | 9.2 | 
CC(CN1c2ccccc2Sc2ccccc21)N(C)C (centres unmarked) [Promethazine, dimethyl[1-(10H-phenothiazin-10-yl)propan-2-yl] amine] | Yes | Yes | 1.45 ± 0.5 °C | 40.3 µM |  | 
NC[C@H]1O[C@H](O[C@H]2[C@H](O)[C@@H](O[C@H]3O[C@H](CO)[C@@H](O)[C@H](N)[C@H]3O)[C@H](N)C[C@@H]2N)[C@H](N)C[C@@H]1O [Tobramycin, O-[3-amino-3-deoxy-α-D-glucopyranosyl-(1→6)]-O-[2,6-diamino-2,3,6-trideoxy-α-D-ribohexopyranosyl-(1→4)]-2-deoxy-D-streptamine] | R,H | Yes | 0.27 ± 0.1 °C | 33 µM | 9.8 | 
CCN(CC)CCOc1ccc(C(O)(Cc2ccc(Cl)cc2)c2ccc(C)cc2)cc1 (centres unmarked) [Triparanol, 1-(4-(2-diethylaminoethoxy)phenyl)-1-p-tolyl-2-(4-chlorophenyl)ethanol] | R, M, Ha | Yes | 0 °C | 7.8 µM | 13.44 | 
Clc1ccccc1CNC[C@H]1CC[C@H](CNCc2ccccc2Cl)CC1 [ay-9944, trans-1,4-bis(2-chlorobenzylaminomethyl) cyclohexane] | R,Ra, M | Yes | 0.58 ± 0.4 °C | 116 µM | 9.1 | 
